According to patent US20230303494A1, “BENZYLAMINE DERIVATIVE, PREPARATION METHOD THEREFOR AND USE THEREOF” (ACADEMY OF MILITARY MEDICAL SCIENCES, priority 2020, published 2023):

Legend:
PD-1/PD-L1 interaction = PD-1/PD-L1 interaction (Homo sapiens (Human), UniProt Q9NZQ7); experiment: PD-1/PD-L1 Binding Assay kit (Cisbio), HTRF; conditions: 8-10 concentrations, read-out: IC50 of inhibition of PD-1/PD-L1 interaction
Raji cells = experiment: Cytotoxicity, Cell Titer-Glo, Raji cells; format: cell-based; conditions: Homo sapiens, 24 hours incubation, read-out: Raji cells IC50 (cell death)
Procedure: (§1) The raji (ATCC), raw (ATCC) and PBMCs cells were suspended in buffer (RPMI 1640 complete medium containing 10% FBS, SIGMA), respectively, and the cell density was counted. The cells were transferred to wells of a 96-well plate, ensuring that the cell density of each well was 1×10^4 cells/well, and incubated for 24 hours at 37° C., 5% CO2 with compounds at different concentrations (100 μM, 50 μM, 25 μM, 12.5 μM, 6.25 μM and 3.125 μM) and buffer control solution (0.2% DMSO). To each well, 100 μL of Cell Titer-Glo Luminescent Solution (Promega) was added and shaken for 10 minutes at room temperature, and then GloMax® Navigator System was used to measure the system […], and the cell death rate was calculated. Cell death rate (%)=(1−RLUcompound/RLUcontrol)×100%, and IC50 was determined from the inhibition curve.

Raw cells = experiment: Cytotoxicity, Cell Titer-Glo, Raw cells; format: cell-based; conditions: 24 hours incubation; read-out: Raw cells IC50 (cell death)
Procedure: as §1

PBMCs cells = experiment: Cytotoxicity, Cell Titer-Glo, PBMCs cells; format: cell-based; conditions: Homo sapiens, PBMC; 24 hours incubation; read-out: PBMCs cells IC50 (cell death)
Procedure: as §1

[1] = test system: Human peripheral blood mononuclear cells (PBMCs); experiment: Promotion of IFN-γ secretion in PBMCs treated with anti-CD3/anti-CD28 and PDL1/FC fusion protein (ELISA); format: cell-based; conditions: for IFN-γ / Increase rate of IFN-γ expression vs PDL1 treatment: hPD-L1 10.0 μg/mL, 72 h
Procedure: Human peripheral blood mononuclear cells (PBMCs) were isolated from 10-15 ml of whole blood of healthy volunteers using experimental human lymphocyte separation medium (TBD sciences). The cells were washed twice with normal saline and resuspended in buffer (RPMI 1640 complete medium containing 10% FBS, SIGMA) to count the cell density. The PBMCs were dispersed and placed in a 96-well plate, 1×10^5 cells and 50 μL of buffer per well. Anti-CD3 antibody (SIGMA) and anti-CD28 antibody (SIGMA) were mixed at a ratio of 1:1 to obtain an antibody mixture. The antibody mixture was added to the wells to ensure that the final concentration of antibody was 0.8 μg/mL. At the same time, PDL1/FC fusion protein (SINO BIOLOGICAL) was added to reach a final concentration of 10.0 μg/mL, and the compound to be tested was diluted with buffer and added to the wells to reach a final concentration of 0.1 μM or 1 μM. The mixed system was incubated at 37° C. and 5% CO2 for 72 h. The supernatant was collected, and the expression level of IFN-γ was measured by ELISA MAXTM Human IFN-γ Standard Kit (BioLegend), and the increase rate was calculated. Increase rate (%)=(expression amount of compound treatment−expression amount of PDL1 treatment)/expression amount of PDL1 treatment×100%

human PD-L1 = human PD-L1 (Homo sapiens (Human), UniProt Q9NZQ7); experiment: Biofilm interferometry (BLI, OctetRED) binding to human PD-L1/AVI; conditions: 1:1 binding model; for koff: read-out: Kdis
Chain of human PD-L1 (Q9NZQ7 19-290): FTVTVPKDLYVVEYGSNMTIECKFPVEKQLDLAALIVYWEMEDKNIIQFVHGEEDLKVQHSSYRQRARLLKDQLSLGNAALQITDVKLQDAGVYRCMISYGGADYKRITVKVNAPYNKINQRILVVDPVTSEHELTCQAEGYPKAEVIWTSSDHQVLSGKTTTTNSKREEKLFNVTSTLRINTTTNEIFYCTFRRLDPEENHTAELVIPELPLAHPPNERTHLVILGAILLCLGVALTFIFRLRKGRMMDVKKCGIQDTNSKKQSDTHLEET
Procedure: In the experiment, the instrument OctectRED of Fortebio Company based on biofilm interferometry (BLI) technology was used to capture human PD-L1/AVI with SA chips. The concentration of antigen PD-L1/AVI was diluted to 10 μg/mL with running buffer (PBS+0.02% Tween-20+2% DMSO), and the loading time was 300 s; similarly, the analyte was also diluted to the corresponding concentrations (20 nM, 10 nM, 5 nM, 2.5 nM, 1.25 nM, 0.625 nM, 0.3125 nM) with running buffer in gradient manner, and a buffer blank control group was set at the same time. The binding time of human PD-L1/AVI to the analyte was 180 s, and the dissociation time was 300 s; the chip was regenerated with 10 mM glycine HCl, pH 1.7 solution and repeated 5-second pulse for 3 times. The data were fitted to a 1:1 binding model to determine the equilibrium dissociation constant KD.

Chain of PD-1/PD-L1 interaction (Q9NZQ7 19-238): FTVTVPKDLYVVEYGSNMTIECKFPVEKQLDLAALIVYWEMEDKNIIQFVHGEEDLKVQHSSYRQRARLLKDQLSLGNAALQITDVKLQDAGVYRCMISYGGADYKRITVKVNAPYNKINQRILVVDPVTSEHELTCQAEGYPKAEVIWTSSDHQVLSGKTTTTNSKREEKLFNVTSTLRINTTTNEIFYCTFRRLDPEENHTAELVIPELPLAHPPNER

| Structure (SMILES) | IC50 (PD-1/PD-L1 interaction) [µM] | IC50 (Raji cells) [µM] | IC50 (Raw cells) [µM] | IC50 (PBMCs cells) [µM] | also measured |
| --- | --- | --- | --- | --- | --- |
| Cc1cc(CNC[C@@H](O)CC(=O)O)c(OCc2cncc(C#N)c2)cc1NCc1cccc(-c2ccccc2)c1C [Compound 22] | 0.017 | – | – | – | – |
| COc1cc(NCc2cccc(-c3ccccc3)c2C)c(C)cc1CNC(CO)C(=O)O (centres unmarked) [Compound 14] | – | > 100 | > 100 | > 100 | – |
| Cc1cc(CN[C@H](CC(N)=O)C(=O)O)c(OCc2cncc(C#N)c2)cc1NCc1cccc(-c2ccccc2)c1C [Compound 25] | 0.047 | – | – | – | – |
| Cc1c(CNc2ccc(CNCCO)c(OCc3cccc(C#N)c3)c2)cccc1-c1ccccc1 [Compound 2] | 3.67 | – | – | – | – |
| Cc1c(C#N)cncc1COc1cc(OCc2cccc(-c3ccccc3)c2C)ccc1CNC(CO)C(=O)O (centres unmarked) [Compound 38, reference compound] | – | 32.1 | 28.8 | 26.6 | IFN-γ ([1]; compound 0.1 μM): 23300 pg/mL; Increase rate of IFN-γ expression vs PDL1 treatment ([1]; compound 0.1 μM): 9.4%; IFN-γ ([1]; compound 1.0 μM): 22600 pg/mL; Increase rate of IFN-γ expression vs PDL1 treatment ([1]; compound 1.0 μM): 6.1% |
| Cc1cc(NCc2cccc(-c3ccccc3)c2C)cc(OCc2cccc(C#N)c2)c1CN[C@H](CO)C(=O)O [Compound 6] | 0.436 | – | – | – | – |
| Cc1c(CNc2ccc(CN[C@H](CO)C(=O)O)c(OCc3cccc(C#N)c3)c2)cccc1-c1ccc2c(c1)OCCO2 [Compound 34] | 0.435 | 90.3 | > 100 | > 100 | – |
| COc1cc(NCc2cccc(-c3ccccc3)c2C)cc(OCc2cccc(C#N)c2)c1CN[C@H](CO)C(=O)O [Compound 8] | 0.672 | > 100 | > 100 | > 100 | – |
| Cc1cc(CN[C@H](CO)C(=O)O)c(OCc2cncc(C#N)c2)cc1NCc1cccc(-c2ccccc2)c1C(F)(F)F [Compound 29] | 0.61 | – | – | – | – |
| N#Cc1cncc(COc2cc(NCc3cccc(-c4ccccc4)c3Br)ccc2CNC(CO)C(=O)O)c1 (centres unmarked) [Compound 31] | – | > 100 | > 100 | > 100 | – |
| Cc1c(CNc2ccc(CNC(CO)CO)c(OCc3cccc(C#N)c3)c2)cccc1-c1ccccc1 [Compound 3] | 2.6 | – | – | – | – |
| Cc1cc(NCc2cccc(-c3ccccc3)c2C)cc(OCc2cncc(C#N)c2)c1CN[C@H](CO)C(=O)O [Compound 7] | 0.363 | – | – | – | – |
| Cc1c(COc2ccc(CN[C@H](CO)C(=O)O)c(OCc3cncc(C#N)c3)c2)cccc1-c1ccccc1 [Compound 37, reference compound] | 0.323 | – | – | – | – |
| Cc1c(NCc2ccc(CN[C@H](CO)C(=O)O)c(OCc3cncc(C#N)c3)c2)cccc1-c1ccccc1 [Compound 28] | 0.191 | – | – | – | – |
| CCOc1cc(NCc2cccc(-c3ccccc3)c2C)c(C)cc1CN[C@H](CO)C(=O)O [Compound 20] | 0.347 | – | – | – | – |
| N#Cc1cncc(COc2cc(NCc3cccc(-c4ccccc4)c3C(F)(F)F)ccc2CN[C@H](CO)C(=O)O)c1 [Compound 30] | 2.93 | – | – | – | – |
| Cc1c(C#N)cncc1COc1cc(OCc2cccc(-c3ccccc3)c2C)ccc1CN[C@H](CO)C(=O)O [Compound 38, reference compound] | 1.04 | – | – | – | – |
| Cc1cc(CN2C[C@H](O)C[C@H]2C(=O)O)c(OCc2cncc(C#N)c2)cc1NCc1cccc(-c2ccccc2)c1C [Compound 21] | 0.024 | > 100 | 88.2 | 75.5 | – |

| Structure (SMILES) | IC50 (PD-1/PD-L1 interaction) [µM] | IC50 (Raji cells) [µM] | IC50 (Raw cells) [µM] | IC50 (PBMCs cells) [µM] | also measured |
| --- | --- | --- | --- | --- | --- |
| Cc1cc(CN[C@H](CO)C(=O)O)c(OCc2cccnc2)cc1NCc1cccc(-c2ccccc2)c1C [Compound 17] | 0.092 | 78.9 | 61.6 | > 100 | – |
| COc1nc(NCc2cccc(-c3ccccc3)c2C)ccc1CN[C@H](CO)C(=O)O [Compound 12] | 4.54 | – | – | – | – |
| COc1cc(NCc2cccc(-c3ccccc3)c2C)ncc1CN[C@H](CO)C(=O)O [Compound 15] | 2.63 | – | – | – | – |
| CC(=O)NCCNCc1ccc(NCc2cccc(-c3ccccc3)c2C)cc1OCc1cccc(C#N)c1 [Compound 1] | 4.94 | – | – | – | – |
| Cc1cc(CN[C@H](CCO)C(=O)O)c(OCc2cncc(C#N)c2)cc1NCc1cccc(-c2ccccc2)c1C [Compound 24] | 1.33 | – | – | – | – |
| N#Cc1cccc(COc2cc(NCc3cccc(-c4ccccc4)c3Br)ccc2CNC(CO)C(=O)O)c1 (centres unmarked) [Compound 33] | 0.637 | – | – | – | – |
| Cc1c(CNc2ccc(CN[C@H](CO)C(=O)O)c(OCc3cccc(C#N)c3)c2)cccc1-c1ccccc1 [Compound 4] | 1.16 | > 100 | > 100 | > 100 | Kd (human PD-L1): 0.00181 µM; kon (human PD-L1): 651000 M⁻¹ s⁻¹; koff (human PD-L1): 0.00118 s⁻¹ |
| COc1cc(NCc2cccc(-c3ccccc3)c2C)c(Cl)cc1CN[C@H](CO)C(=O)O [Compound 11] | 0.107 | – | – | – | Kd (human PD-L1): 0.000515 µM; kon (human PD-L1): 1.29e+06 M⁻¹ s⁻¹; koff (human PD-L1): 0.000664 s⁻¹ |
| Cc1c(COc2ccc(CNC(CO)C(=O)O)c(OCc3cncc(C#N)c3)c2)cccc1-c1ccccc1 (centres unmarked) [Compound 37, reference compound] | – | 22.6 | 31.2 | 16.8 | Kd (human PD-L1): 0.0675 µM; kon (human PD-L1): 12600 M⁻¹ s⁻¹; koff (human PD-L1): 0.000851 s⁻¹; IFN-γ ([1]; compound 0.1 μM): 23200 pg/mL; Increase rate of IFN-γ expression vs PDL1 treatment ([1]; compound 0.1 μM): 8.9%; IFN-γ ([1]; compound 1.0 μM): 25100 pg/mL; Increase rate of IFN-γ expression vs PDL1 treatment ([1]; compound 1.0 μM): 17.8% |
| Cc1cc(CN2C[C@@H](O)CC2=O)c(OCc2cncc(C#N)c2)cc1NCc1cccc(-c2ccccc2)c1C [Compound 23] | 0.036 | – | – | – | – |
| Cc1c(CN(C)c2ccc(CN[C@H](CO)C(=O)O)c(OCc3cccc(C#N)c3)c2)cccc1-c1ccccc1 [Compound 26] | > 100 | – | – | – | – |
| COc1nc(NCc2cccc(-c3ccccc3)c2C)ccc1CNCCNC(C)=O [Compound 9] | 4.24 | – | – | – | – |
| Cc1c(CNc2ccc(CN[C@H](CO)C(=O)O)c(OCc3cncc(C#N)c3)c2)cccc1-c1ccccc1 [Compound 10] | 0.038 | > 100 | > 100 | > 100 | Kd (human PD-L1): 0.000296 µM; kon (human PD-L1): 849000 M⁻¹ s⁻¹; koff (human PD-L1): 0.000251 s⁻¹; IFN-γ ([1]; compound 0.1 μM): 37700 pg/mL; Increase rate of IFN-γ expression vs PDL1 treatment ([1]; compound 0.1 μM): 77.0%; IFN-γ ([1]; compound 1.0 μM): 41500 pg/mL; Increase rate of IFN-γ expression vs PDL1 treatment ([1]; compound 1.0 μM): 94.8%; effect on promoting IFN-γ secretion at the cellular level ([1]; in words, better than that of BMS202): significant effect on promoting IFN-γ secretion |
| Cc1cc(CN[C@@H](CO)CC(=O)O)c(OCc2cncc(C#N)c2)cc1NCc1cccc(-c2ccccc2)c1C [Compound 18] | 0.023 | – | – | – | – |
| Cc1c(CN(C)c2ccc(CNCCO)c(OCc3cccc(C#N)c3)c2)cccc1-c1ccccc1 [Compound 27] | 22.6 | 84.1 | > 100 | > 100 | – |
| COc1nc(OCc2cccc(-c3ccccc3)c2C)ccc1CNCCNC(C)=O [BMS202] | – | – | – | – | IFN-γ ([1]; compound 0.1 μM): 35100 pg/mL; Increase rate of IFN-γ expression vs PDL1 treatment ([1]; compound 0.1 μM): 64.8%; IFN-γ ([1]; compound 1.0 μM): 39100 pg/mL; Increase rate of IFN-γ expression vs PDL1 treatment ([1]; compound 1.0 μM): 83.6% |
| Cc1cc(CN[C@H](CO)C(=O)O)c(OCc2cccc(C#N)c2)cc1NCc1cccc(-c2ccccc2)c1C [Compound 19] | 0.165 | – | – | – | – |
